Patent US8546414B2, “Ion channel modulators and methods of use” (Vertex Pharmaceuticals Incorporated, priority 2004, dated 2013)

Columns and labels:
CaV2.2 = target: T1, CaV2.2 (Homo sapiens, UniProt Q00975); assay: VIPR optical membrane potential assay with electrical stimulation, CaV2.2; type: cell-based; details: Table 9, CaV 2.2 receptors
T1 construct: expressed in transfected cells; host or cells: HEK293
Experimental: A. Optical Methods for Assaying CaV Inhibition Properties of Compounds:
(§1) Antagonist properties of test compounds were assessed as follows. Cells expressing the CaV of interest were placed into microtiter plates. After an incubation period, the cells were stained with fluorescent dyes sensitive to the transmembrane potential. The test compounds were added to the microtiter plate. The cells were stimulated with electrical means to evoke a CaV dependent membrane potential change from unblocked channels, which was detected and measured with trans-membrane potential-sensitive dyes. Antagonists were detected as a decreased membrane potential response to the stimulus.
(§2) VIPR® Optical Membrane Potential Assay Method with Electrical Stimulation
The following is an example of how CaV2.2 inhibition activity is measured using the optical membrane potential method. Other subtypes are performed in an analogous mode in a cell line expressing the CaV of interest.
HEK293 cells stably expressing CaV2.2 are plated into 96-well microtiter plates. After an appropriate incubation period, the cells are stained with the voltage sensitive dyes CC2-DMPE/DiSBAC2(3) as follows.
(§3) 2X CC2-DMPE=20 μM CC2-DMPE: 10 mM CC2-DMPE is vortexed with an equivalent volume of 10% Pluronic, followed by vortexing in required amount of HBSS containing 10 mM HEPES. Each cell plate will require 5 mL of 2×CC2-DMPE. 50 μL of 2×CC2-DMPE is added to wells containing washed cells, resulting in a 10 μM final staining concentration. The cells are stained for 30 minutes in the dark at RT.
Vortex in required amount of Bath X with beta-cyclodextrin. Each 96 well cell plate will require 5 ml of 2XCC2DMPE. Wash plate with ELx405 with Bath X, leaving a residual volume of 50 μL/well. Add 50 μL of 2XCC2DMPE & […] to each well. Stain for 30 minutes in the dark at RT.
Allow solution to sit for 10 minutes. Slowly mix in 370 mM BaCl2. This solution can be used to solvate compound plates. Note that compound plates are made at 1.5× drug concentration and not the usual 2X. Wash CC2 stained plate, again, leaving residual volume of 50 μL. Add 100 uL/well of the AY17 solution. Stain for 15 minutes in the dark at RT. Run plate on the optical reader.
(§4) The instrument comprises a microtiter plate handler, an optical system for exciting the coumarin dye while simultaneously recording the coumarin and oxonol emissions, a waveform generator, a current- or voltage-controlled amplifier, and a device for inserting electrodes in well. Under integrated computer control, this instrument passes user-programmed electrical stimulus protocols to cells within the wells of the microtiter plate.
Insert or use electrodes into each well to be assayed.
(§5) Use the current-controlled amplifier to deliver stimulation wave pulses for 3-5 s. Two seconds of pre-stimulus recording are performed to obtain the un-stimulated intensities. Five seconds of post-stimulation recording are performed to examine the relaxation to the resting state.
(§6) Data are analyzed and reported as normalized ratios of background-subtracted emission intensities measured in the 460 nm and 580 nm channels. Background intensities are then subtracted from each assay channel. Background intensities are obtained by measuring the emission intensities during the same time periods from identically treated assay wells in which there are no cells. The response as a function of time is then reported as the ratios obtained using the following formula: […]
(§7) The data is further reduced by calculating the initial (Ri) and final (Rf) ratios. These are the average ratio values during part or all of the pre-stimulation period, and during sample points during the stimulation period. The response to the stimulus R=Rf/Ri is then calculated.
Control responses are obtained by performing assays in the presence of a compound with the desired properties (positive control), such as mibefradil, and in the absence of pharmacological agents (negative control).

NaV1.3 = target: T2, NaV1.3 (Homo sapiens, UniProt Q9NY46); assay: VIPR optical membrane potential assay with electrical stimulation, NaV1.3; type: cell-based; details: Table 9, NaV 1.3 receptors
T2 construct: expressed in transfected cells; host or cells: HEK293
T2 sequence (Q9NY46 whole entry): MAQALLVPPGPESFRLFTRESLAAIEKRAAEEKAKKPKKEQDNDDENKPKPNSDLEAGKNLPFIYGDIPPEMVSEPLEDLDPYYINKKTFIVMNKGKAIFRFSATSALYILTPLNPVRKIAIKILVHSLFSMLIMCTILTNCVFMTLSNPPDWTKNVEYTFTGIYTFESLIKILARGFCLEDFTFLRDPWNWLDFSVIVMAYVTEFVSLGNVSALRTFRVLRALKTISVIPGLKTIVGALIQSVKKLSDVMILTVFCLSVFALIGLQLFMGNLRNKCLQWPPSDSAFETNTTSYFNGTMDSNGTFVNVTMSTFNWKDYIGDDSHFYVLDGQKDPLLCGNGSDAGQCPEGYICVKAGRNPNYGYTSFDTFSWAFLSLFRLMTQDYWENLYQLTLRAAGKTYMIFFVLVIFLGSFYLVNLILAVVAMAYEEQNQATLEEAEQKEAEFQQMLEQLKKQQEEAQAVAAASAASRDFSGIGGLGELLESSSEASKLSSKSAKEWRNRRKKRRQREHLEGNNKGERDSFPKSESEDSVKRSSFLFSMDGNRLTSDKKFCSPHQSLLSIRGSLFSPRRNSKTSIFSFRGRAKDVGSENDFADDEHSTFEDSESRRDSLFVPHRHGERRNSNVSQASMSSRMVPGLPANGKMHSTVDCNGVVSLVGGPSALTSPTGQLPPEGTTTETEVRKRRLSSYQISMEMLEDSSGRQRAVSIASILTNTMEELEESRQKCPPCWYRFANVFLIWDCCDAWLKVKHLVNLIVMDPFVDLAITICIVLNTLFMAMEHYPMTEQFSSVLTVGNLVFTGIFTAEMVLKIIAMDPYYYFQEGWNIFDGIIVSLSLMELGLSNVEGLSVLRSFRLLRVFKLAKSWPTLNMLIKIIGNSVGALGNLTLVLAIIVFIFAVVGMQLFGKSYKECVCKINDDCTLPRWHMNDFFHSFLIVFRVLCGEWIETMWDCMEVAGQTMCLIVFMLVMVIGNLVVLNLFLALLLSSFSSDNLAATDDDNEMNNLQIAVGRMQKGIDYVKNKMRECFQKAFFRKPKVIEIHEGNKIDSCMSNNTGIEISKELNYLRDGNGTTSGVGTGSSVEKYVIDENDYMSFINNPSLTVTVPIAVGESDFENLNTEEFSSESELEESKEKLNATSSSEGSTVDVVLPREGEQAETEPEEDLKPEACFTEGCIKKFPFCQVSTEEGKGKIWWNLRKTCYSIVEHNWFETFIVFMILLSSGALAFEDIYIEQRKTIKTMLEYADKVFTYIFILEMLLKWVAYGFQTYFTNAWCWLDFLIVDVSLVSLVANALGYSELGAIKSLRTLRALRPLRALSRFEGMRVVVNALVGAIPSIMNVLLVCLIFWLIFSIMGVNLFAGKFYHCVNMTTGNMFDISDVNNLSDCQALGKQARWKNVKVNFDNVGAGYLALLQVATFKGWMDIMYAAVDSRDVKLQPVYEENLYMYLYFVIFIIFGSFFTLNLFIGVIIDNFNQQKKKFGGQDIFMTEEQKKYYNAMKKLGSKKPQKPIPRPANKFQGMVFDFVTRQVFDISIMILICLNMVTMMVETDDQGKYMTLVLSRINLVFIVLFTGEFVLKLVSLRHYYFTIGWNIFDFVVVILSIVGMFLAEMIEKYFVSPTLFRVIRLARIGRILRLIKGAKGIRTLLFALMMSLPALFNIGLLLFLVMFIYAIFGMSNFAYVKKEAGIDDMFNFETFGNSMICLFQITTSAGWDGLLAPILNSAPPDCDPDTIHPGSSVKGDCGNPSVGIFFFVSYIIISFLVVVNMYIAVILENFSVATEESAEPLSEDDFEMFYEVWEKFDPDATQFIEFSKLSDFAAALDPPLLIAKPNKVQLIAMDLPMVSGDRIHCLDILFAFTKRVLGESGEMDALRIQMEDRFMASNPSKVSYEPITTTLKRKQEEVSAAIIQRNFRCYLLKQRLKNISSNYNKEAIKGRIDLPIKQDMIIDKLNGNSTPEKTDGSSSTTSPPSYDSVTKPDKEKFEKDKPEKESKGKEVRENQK
Experimental: as §1, with “expressing the NaV of interest” for “expressing the CaV of interest”, “stimulated with either chemical or electrical means” for “stimulated with electrical means”, “evoke a NaV dependent membrane” for “evoke a CaV dependent membrane”
as §2
The following is an example of how NaV1.3 inhibition activity is measured using the optical membrane potential method#2. Other subtypes are performed in an analogous mode in a cell line expressing the NaV of interest.
HEK293 cells stably expressing NaV1.3 are plated into 96-well microtiter plates. After an appropriate incubation period, the cells are stained with the voltage sensitive dyes CC2-DMPE/DiSBAC2(3) as follows.
as §3, with “pluronic,” for “Pluronic,”
2X DISBAC2(3) with ABSC1=6 μM DISBAC2(3) and 1 mM ABSC1: The required amount of 10 mM DISBAC2(3) is added to a 50 ml conical tube and mixed with 1 μL 10% pluronic for each mL of solution to be made and vortexed together. Then HBSS/HEPES is added to make up 2× solution. Finally, the ABSC1 is added.
The 2X DiSBAC2(3) solution can be used to solvate compound plates. Note that compound plates are made at 2× drug concentration. Wash stained plate again, leaving residual volume of 50 Add 50 μL/well of the 2X DiSBAC2(3) w/ABSC1. Stain for 30 minutes in the dark at RT.
as §4
as §5, with “• 1. Insert or use electrodes into each well to be assayed. • 2. Use” for “Use”, “3” for “3-5”, “state. Data Analysis” for “state.”
as §6, §7
Control responses are obtained by performing assays in the presence of a compound with the desired properties (positive control), such as tetracaine, and in the absence of pharmacological agents (negative control). Responses to the negative (N) and positive (P) controls are calculated as above. The compound antagonist activity A is defined as: […]

SMILES | IC50 (CaV2.2) [µM] | IC50 (NaV1.3) [µM]
CC(C)N(Cc1ccccc1)C(=O)c1cnc(NCc2ccc3c(c2)OCO3)nc1-c1ccccc1F [compound 301] | > 10 | > 10
Cc1cccc(-c2nc(N3CCOCC3)ncc2C(=O)N(Cc2ccccc2)C(C)C)c1 [compound 240] | > 10 | > 10
CC(C)N(Cc1ccccc1)C(=O)c1cnc(N2CCOCC2)nc1-c1ccccc1F [compound 326, 4-(2-Fluoro-phenyl)-2-morpholin-4-yl-pyrimidine-5-carboxylic acid benzyl-isopropyl-amide] | 2 to 10 | > 10
CC(=O)N1CCN(c2ncc(C(=O)N3CCC(C)CC3)c(-c3ccc(-c4ccccc4)cc3)n2)CC1 [compound 334] | 2 to 10 | > 10
CCN(Cc1ccccc1)C(=O)c1cnc(NCc2ccc3c(c2)OCO3)nc1-c1ccccc1F [compound 222] | > 10 | > 10
COCCNc1ncc(C(=O)NCC2CCCCC2)c(-c2ccc(-c3ccccc3)cc2)n1 [compound 297] | > 10 | > 10
CCN(Cc1cccc(C)c1)C(=O)c1cnc(N2CCOCC2)nc1-c1cccc(C)c1 [compound 266] | > 10 | > 10
CC1C(NC(=O)c2cnc(N3CCOCC3)nc2-c2ccc(C#N)cc2)CC2CC1C2(C)C (stereo not drawn) [compound 217] | > 10 | > 10
COCCCNC(=O)c1cnc(N2CCOCC2)nc1-c1cccc(C)c1 [compound 307] | > 10 | > 10
COCCCNC(=O)c1cnc(NC2CCCCC2)nc1-c1ccc(-c2ccccc2)cc1 [compound 310] | > 10 | > 10
CC(C)N(Cc1ccccc1)C(=O)c1cnc(NCC2CC2)nc1-c1ccccc1F [compound 277] | 2 to 10 | > 10
CCC1CCC(C)N(C(=O)c2cnc(NCC3CC3)nc2-c2ccccc2F)C1 (stereo not drawn) [compound 219] | 2 to 10 | > 10
COCCCNC(=O)c1cnc(N2CCOCC2)nc1-c1ccccc1F [compound 324] | > 10 | > 10
O=C(c1cnc(NCc2cccc(C(F)(F)F)c2)nc1-c1ccccc1F)N1CCOCC1 [compound 236] | > 10 | > 10
CCN(Cc1ccccc1)C(=O)c1cnc(N2CCN(C(C)=O)CC2)nc1-c1ccccc1F [compound 290] | > 10 | > 10
CC1CCN(C(=O)c2cnc(N3CCOCC3)nc2-c2ccccc2F)CC1 [compound 337] | > 10 | > 10
CC(=O)NCCNc1ncc(C(=O)N(Cc2ccccc2)C(C)C)c(-c2ccccc2F)n1 [compound 291] | > 10 | > 10

Further lines, results first:

IC50 (CaV2.2) [µM] | IC50 (NaV1.3) [µM] | SMILES
> 10 | > 10 | CCN(C)C(=O)c1cnc(N2CCOCC2)nc1-c1ccccc1F [compound 317]
> 10 | > 10 | CCN(Cc1ccccc1)C(=O)c1cnc(NCc2ccc3c(c2)OCO3)nc1-c1ccc(C#N)cc1 [compound 269]
> 10 | > 10 | CC(=O)N1CCN(c2ncc(C(=O)N3CCCCC3)c(-c3ccc(C#N)cc3)n2)CC1 [compound 267]
> 10 | > 10 | CCN(C)C(=O)c1cnc(N2CCCC(C(N)=O)C2)nc1-c1ccc(C#N)cc1 (stereo not drawn) [compound 284]
> 10 | > 10 | CCC(C)Nc1ncc(C(=O)NC2CCCCC2C)c(-c2ccccc2F)n1 (stereo not drawn) [compound 253]
> 10 | > 10 | CC1CCN(c2ncc(C(=O)N(C)C3CCCCC3)c(-c3ccc(C#N)cc3)n2)CC1 [compound 241]
> 10 | > 10 | CCCCNc1ncc(C(=O)N2CCC(C)CC2)c(-c2ccc(C#N)cc2)n1 [compound 344]
> 10 | > 10 | Cc1ccc(CNc2ncc(C(=O)N3CCC(C)CC3)c(-c3ccc(C#N)cc3)n2)o1 [compound 261]
2 to 10 | > 10 | CC1CC(C)CN(C(=O)c2cnc(NCCc3cccc(F)c3)nc2-c2ccc(C#N)cc2)C1 (stereo not drawn) [compound 220]
> 10 | > 10 | CCN(C)c1ncc(C(=O)N(C)C2CCCCC2)c(-c2ccc(C#N)cc2)n1 [compound 227]
> 10 | > 10 | CC(C)CN(C)C(=O)c1cnc(N2CCCCC2)nc1-c1ccc(C#N)cc1 [compound 322]
> 10 | > 10 | CCN(Cc1cccc(C)c1)C(=O)c1cnc(NCC2CC2)nc1-c1ccccc1F [compound 209]
> 10 | > 10 | CCC(C)Nc1ncc(C(=O)N(C)CC)c(-c2ccc(C#N)cc2)n1 (stereo not drawn) [compound 336]
2 to 10 | > 10 | CC(C)CN(C)C(=O)c1cnc(NCc2ccc3c(c2)OCO3)nc1-c1ccc(C#N)cc1 [compound 263]
> 10 | > 10 | CC(C)CN(CC(C)C)C(=O)c1cnc(N2CCCC2)nc1-c1ccc(C#N)cc1 [compound 341]
> 10 | > 10 | COCCCNC(=O)c1cnc(NCC2CC2)nc1-c1cccc(C)c1 [compound 257]
> 10 | > 10 | CN(C(=O)c1cnc(NCC2CC2)nc1-c1ccc(C#N)cc1)C1CCCCC1 [compound 298]
2 to 10 | > 10 | CC(=O)N1CCN(c2ncc(C(=O)N(C)CC(C)C)c(-c3ccc(-c4ccccc4)cc3)n2)CC1 [compound 225]
> 10 | > 10 | COCCNc1ncc(C(=O)N(C)C2CCCCC2)c(-c2ccc(C#N)cc2)n1 [compound 256]
> 10 | > 10 | COc1ccc(CCN(C)c2ncc(C(=O)N(C)CC(C)C)c(-c3ccc(C#N)cc3)n2)cc1OC [compound 271]
> 10 | > 10 | COc1cccc(OC)c1CNc1ncc(C(=O)N(C)CC(C)C)c(-c2ccccc2F)n1 [compound 255]
> 10 | > 10 | CCN(Cc1cccc(C)c1)C(=O)c1cnc(NCCCOC)nc1-c1ccccc1F [compound 268]
